Results reported in patent publication US20260294925A1, “CELL PROLIFERATION MODULATORS AND USES THEREOF” (Kumquat Biosciences Inc., priority 2023, published 2026).

Legend:
[1] = Toxicity / body weight observation in Ba/F3 allograft mice; format: in vivo, mouse; details: Ba/F3 T315I allograft NOD/SCID mice, oral gavage, single agents and combinations
Source text: Mice were maintained under specific pathogen-free conditions, and food and water were provided ad libitum. A mouse Ba/F3 cell line that expresses a p210 […] fusion and T315I mutation was implanted subcutaneously (1×10^6 cells per mouse) into the right flank of female 6- to 8-week-old NOD/SCID mice. Mice were monitored daily, weighed up to three times weekly, and caliper measurements began when tumors became visible. Animals were randomly assigned to treatment groups as indicated in FIG. 2 by an algorithm that assigns animals to groups to achieve best case distributions of mean tumor size with lowest possible standard deviation. Tumor volume was calculated by measuring two perpendicular diameters using the following formula: (L×w^2)/2, in which L and w refer to the length and width of the tumor diameter, respectively. When tumors reached an average size of ~100 mm^3, mice were randomized and treated with vehicle, a SOS1 inhibitor of the present disclosure (Compound A), asciminib, ponatinib, Compound A and asciminib, or Compound A and ponatinib by oral gavage at the indicated dose and schedule.

KCL22-r xenograft = assay: KCL22-r (dasatinib-refractory) xenograft study (FIG. 7); format: in vivo, mouse; details: dasatinib monotherapy
Experimental: Mice were maintained under specific pathogen-free conditions, and food and water were provided ad libitum. Female 6- to 8-week-old athymic BALB/c nude (NCr) nu/nu mice were used to inoculate Ph+ CML cell lines. For example, KCL22-s cells (5×10^6) were harvested on the day of use and injected in growth-factor-reduced Matrigel/PBS (50% final concentration in 100 μL). One flank was inoculated subcutaneously per mouse. Mice were monitored daily, weighed twice weekly, and caliper measurements began when tumors became visible. Animals were randomly assigned to treatment groups as indicated in FIG. 1 by an algorithm that assigns animals to groups to achieve best case distributions of mean tumor size with lowest possible standard deviation. Tumor volume was calculated by measuring two perpendicular diameters using the following formula: (L×w^2)/2, in which L and w refer to the length and width of the tumor diameter, respectively. When tumors reached an average size of 100 mm^3, mice were randomized and treated with vehicle (20% Dexolve) or indicated compounds using a daily or twice daily schedule by oral gavage. Results are expressed as mean and […]. […] Combination treatment with dasatinib renders more than 90% complete responses. […]

Cc1ccc(C(=O)Nc2ccc(CN3CCN(C)CC3)c(C(F)(F)F)c2)cc1C#Cc1cnc2cccnn12 [ponatinib]
toxicity or body weight loss [1]: No apparent toxicity or body weight loss was observed

O=C(Nc1ccc(OC(F)(F)Cl)cc1)c1cnc(N2CC[C@@H](O)C2)c(-c2ccn[nH]2)c1 [asciminib]
toxicity or body weight loss [1]: No apparent toxicity or body weight loss was observed

Cc1nc(Nc2ncc(C(=O)Nc3c(C)cccc3Cl)s2)cc(N2CCN(CCO)CC2)n1 [dasatinib]
response of KCL22-r model to dasatinib (KCL22-r xenograft): dasatinib-refractory tumor
